Measured values as given in the supplement of paper PMC10307832.

Legend:
Test in all cases: relative viability (nuclei count vs DMSO), 5 days (fraction); higher = more cells survive
[1] = compound: COC1=CC=C(C=C1)CN2C=CC3=C2C=C(C=C3)C(=O)NO + CC(=O)c1c(C)c2cnc(Nc3ccc(N4CCNCC4)cn3)nc2n(C2CCCC2)c1=O [Palbociclib] (partner 0.5 µM)
Summary of the method: (§1)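 One day after seeding in 1536-well plates, lung cancer cell lines were dosed by pin tool. Dosing was either single-drug or a fixed anchor-drug dose plus five library-drug doses (not always all listed) in √10 steps. After 5 days, nuclei were stained in one fix-and-stain step and counted on 4× images, and relative viability is the nuclei count of treated wells over that of vehicle wells, given as the median of duplicate plates.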

Veliparib + Palbociclib = compound: C[C@]1(c2nc3c(C(N)=O)cccc3[nH]2)CCCN1 [Veliparib] + CC(=O)c1c(C)c2cnc(Nc3ccc(N4CCNCC4)cn3)nc2n(C2CCCC2)c1=O [Palbociclib] (partner 0.5 µM)
Summary of the method: as §1

Veliparib + Pictilisib = compound: C[C@]1(c2nc3c(C(N)=O)cccc3[nH]2)CCCN1 [Veliparib] + CS(=O)(=O)N1CCN(Cc2cc3nc(-c4cccc5[nH]ncc45)nc(N4CCOCC4)c3s2)CC1 [Pictilisib] (partner 1 µM)
Summary of the method: as §1

Veliparib + Olaparib = compound: C[C@]1(c2nc3c(C(N)=O)cccc3[nH]2)CCCN1 [Veliparib] + O=C(c1cc(Cc2n[nH]c(=O)c3ccccc23)ccc1F)N1CCN(C(=O)C2CC2)CC1 [Olaparib] (partner 8 µM)
Summary of the method: as §1

Cell Line	relative viability ([1]; first compound 0.8 µM)	relative viability ([1]; first compound 2.53 µM)	relative viability ([1]; first compound 8 µM)	relative viability (Veliparib + Palbociclib; first compound 0.06325 µM)	relative viability (Veliparib + Palbociclib; first compound 0.2 µM)	relative viability (Veliparib + Palbociclib; first compound 0.6325 µM)	relative viability (Veliparib + Palbociclib; first compound 2 µM)	relative viability (Veliparib + Pictilisib; first compound 0.02 µM)	relative viability (Veliparib + Pictilisib; first compound 0.06325 µM)	relative viability (Veliparib + Pictilisib; first compound 0.2 µM)	relative viability (Veliparib + Pictilisib; first compound 0.6325 µM)	relative viability (Veliparib + Pictilisib; first compound 2 µM)	relative viability (Veliparib + Olaparib; first compound 0.06325 µM)	relative viability (Veliparib + Olaparib; first compound 0.2 µM)	relative viability (Veliparib + Olaparib; first compound 0.6325 µM)	relative viability (Veliparib + Olaparib; first compound 2 µM)	relative viability ([1]; first compound 0.253 µM)	relative viability (Veliparib + Palbociclib; first compound 0.02 µM)	relative viability (Veliparib + Olaparib; first compound 0.02 µM)	relative viability ([1]; first compound 0.08 µM)
NCI-H322M	0.513	0.435	0.48	0.491	0.48	0.514	0.49	0.496	0.459	0.573	0.525	0.321	0.737	0.786	0.74	0.715	–	–	–	–
NCI-H358	0.115	0.14	0.191	0.136	0.153	0.137	0.119	–	0.37	0.38	0.315	0.342	0.739	0.662	0.564	0.597	0.125	0.117	0.673	–
NCI-H441	0.238	0.231	0.185	0.222	0.266	0.213	0.218	0.472	0.501	0.588	0.504	0.516	0.637	0.573	0.598	0.595	0.235	0.203	0.691	0.23
NCI-H460	0.0964	0.186	0.108	0.092	0.11	0.121	0.131	0.349	0.335	0.325	0.347	0.377	0.316	0.489	0.434	0.425	0.173	0.147	0.427	0.201
NCI-H520	0.208	0.214	0.195	0.239	0.254	0.212	0.223	0.392	0.267	0.316	0.283	0.227	0.329	0.332	0.366	0.358	0.194	0.24	0.352	0.197
NCI-H647	0.379	0.494	0.438	0.325	0.425	0.423	0.469	0.347	0.368	0.436	0.447	0.265	0.465	0.659	0.505	0.572	0.364	0.392	0.657	0.441
NCI-H650	0.353	0.319	0.32	0.278	0.344	0.33	0.331	0.968	0.855	0.926	0.743	0.809	0.329	0.383	0.431	0.378	0.381	0.309	0.355	0.328
NCI-H661	0.403	0.422	0.353	0.41	0.4	0.371	0.384	0.397	0.317	0.354	0.359	0.393	0.824	0.712	0.692	0.741	0.406	0.382	0.749	–
NCI-H727	0.698	0.644	0.601	0.689	0.624	0.661	0.605	0.195	0.33	0.433	0.296	0.431	0.549	0.739	0.665	0.748	0.631	0.7	0.601	0.61
NCI-H838	0.226	0.228	0.18	0.191	0.235	0.225	0.224	0.441	0.455	0.418	0.335	0.457	0.729	0.802	0.702	0.764	0.237	0.22	0.852	0.214
NCI-H1355	0.425	0.413	0.411	0.396	0.375	0.417	0.402	–	0.329	0.477	0.406	0.472	0.69	0.764	0.678	0.78	0.471	0.305	0.656	0.382
NCI-H1395	0.709	0.6	0.563	0.58	0.614	0.565	0.554	–	0.516	0.557	0.675	0.524	0.395	0.448	0.415	0.471	0.632	0.606	0.435	–
NCI-H1437	0.344	0.366	0.326	0.323	0.281	0.362	0.335	0.419	0.512	0.552	0.378	0.362	0.624	0.616	0.653	0.661	0.295	0.304	0.688	0.283
NCI-H1650	0.354	0.426	0.351	0.305	0.28	0.322	0.345	–	0.507	0.61	0.519	0.566	0.679	0.729	0.707	0.757	0.341	0.236	0.918	0.355
NCI-H1651	0.525	0.51	0.531	0.497	0.52	0.499	0.485	0.572	0.601	0.559	0.457	0.558	0.197	0.183	0.173	0.183	0.519	0.513	0.172	0.476
NCI-H1666	0.694	0.679	0.625	0.606	0.644	0.655	0.654	0.357	0.334	0.625	0.427	0.49	0.711	0.82	0.771	0.778	0.661	0.574	0.777	0.642
NCI-H1734	0.387	0.341	0.34	0.32	0.351	0.323	0.349	0.461	0.436	0.492	0.437	0.435	0.577	0.666	0.567	0.691	0.367	–	–	–

Cell Line	relative viability ([1]; first compound 0.8 µM)	relative viability ([1]; first compound 2.53 µM)	relative viability ([1]; first compound 8 µM)	relative viability (Veliparib + Palbociclib; first compound 0.06325 µM)	relative viability (Veliparib + Palbociclib; first compound 0.2 µM)	relative viability (Veliparib + Palbociclib; first compound 0.6325 µM)	relative viability (Veliparib + Palbociclib; first compound 2 µM)	relative viability (Veliparib + Pictilisib; first compound 0.02 µM)	relative viability (Veliparib + Pictilisib; first compound 0.06325 µM)	relative viability (Veliparib + Pictilisib; first compound 0.2 µM)	relative viability (Veliparib + Pictilisib; first compound 0.6325 µM)	relative viability (Veliparib + Pictilisib; first compound 2 µM)	relative viability (Veliparib + Olaparib; first compound 0.06325 µM)	relative viability (Veliparib + Olaparib; first compound 0.2 µM)	relative viability (Veliparib + Olaparib; first compound 0.6325 µM)	relative viability (Veliparib + Olaparib; first compound 2 µM)	relative viability ([1]; first compound 0.253 µM)	relative viability (Veliparib + Palbociclib; first compound 0.02 µM)	relative viability (Veliparib + Olaparib; first compound 0.02 µM)	relative viability ([1]; first compound 0.08 µM)
NCI-H1755	0.5	0.448	0.423	0.469	0.442	0.455	0.395	0.403	0.415	0.479	0.434	0.432	0.798	0.877	0.881	0.915	0.48	0.46	0.821	0.464
NCI-H1792	0.626	0.634	0.637	0.603	0.704	0.692	0.659	0.322	0.212	0.301	0.263	0.332	0.311	0.68	0.411	0.397	0.726	0.635	0.693	0.616
NCI-H1793	0.324	0.32	0.248	0.292	0.336	0.348	0.331	0.375	0.306	0.343	0.261	0.356	0.976	0.827	0.851	1.01	0.344	0.31	0.954	–
NCI-H1915	0.518	0.505	0.559	0.461	0.519	0.512	0.504	0.989	0.87	0.727	0.808	0.86	0.238	0.243	0.251	0.254	0.545	0.541	0.252	0.506
NCI-H1944	0.315	0.338	0.308	0.348	0.355	0.324	0.329	0.344	0.311	0.338	0.323	0.351	0.437	0.418	0.388	0.385	0.36	0.302	0.433	–
NCI-H1975	0.604	0.665	0.537	0.544	0.513	0.543	0.535	0.292	0.283	0.336	0.282	0.287	0.745	0.788	0.748	0.776	0.627	0.533	0.77	0.347
NCI-H1993	0.749	0.714	0.593	0.569	0.59	0.614	0.636	0.772	0.826	0.822	0.807	0.805	1.05	1.2	1.03	1.13	1.12	–	–	0.586
NCI-H2009	0.243	0.226	0.162	0.211	0.235	0.205	0.2	0.734	0.777	0.704	0.786	0.813	0.652	0.682	0.672	0.763	0.215	0.145	0.672	0.211
NCI-H2023	0.433	0.359	0.365	0.329	0.391	0.346	0.398	0.196	0.238	0.251	0.209	0.224	0.477	0.439	0.446	0.439	0.355	–	0.486	0.36
NCI-H2085	0.495	0.464	0.538	0.476	0.477	0.471	0.479	0.468	0.463	0.39	0.415	0.396	0.776	0.779	0.708	0.734	0.452	0.454	0.789	0.492
NCI-H2087	0.259	0.28	0.164	0.222	0.249	0.264	0.216	0.609	0.783	0.726	0.65	0.871	0.484	0.642	0.589	0.681	0.226	0.183	0.648	0.261
NCI-H2126	0.368	0.361	0.376	0.357	0.373	0.33	0.313	0.531	0.452	0.507	0.458	0.537	0.925	0.913	0.927	0.865	0.339	0.357	0.905	0.34
NCI-H2170	0.412	0.361	0.367	0.446	0.435	0.386	0.399	0.328	0.345	0.314	0.346	0.347	0.587	0.58	0.586	0.586	0.374	0.43	0.573	0.374
NCI-H2228	0.904	0.685	0.573	0.897	0.645	0.774	0.759	0.464	0.538	0.378	0.463	0.425	0.58	0.913	0.541	0.754	0.825	0.553	0.807	0.544
NCI-H2347	0.472	0.441	0.428	0.411	0.404	0.444	0.477	0.666	0.612	0.668	0.707	0.724	0.549	0.597	0.586	0.576	0.445	0.44	0.587	0.422
NCI-H2405	0.55	0.513	0.481	–	0.569	0.504	0.503	–	0.46	0.456	0.468	0.308	–	0.888	0.872	0.939	–	0.529	0.927	0.476
